How the values were obtained:
Eggerthella lenta = experiment: MIC microbroth dilution (CLSI); format: cell-based; design: unit not given beside the values; details: ATCC 43055; SBB
Bacteroides fragilis = experiment: MIC microbroth dilution (CLSI); format: cell-based; design: unit not given beside the values; details: ATCC 25285; SBB
E. coli (5067-6002) = experiment: Modified AATCC 100 method, silicone membrane valves; details: low loading, original surface (A*)
[1] = tested on: Staphylococcus aureus, strain ATCC 25923; details: S. aureus ATCC 25923
Candida tropicalis = experiment: MIC microbroth dilution (CLSI); format: cell-based; details: ATCC750 - reference strain
[2] = tested on: Trichophyton mentagrophytes; experiment: MIC microbroth dilution (CLSI); format: cell-based; details: G.R. Micro collection
Cryptococcus neoformans = experiment: MIC microbroth dilution (CLSI); format: cell-based; details: G.R. Micro collection
S. epidermidis (RP62A) = experiment: Modified AATCC 100 method, silicone membrane valves; details: low loading, original surface (A*)
[3] = tested on: Methicillin resistant Staphylococcus aureus (MRSA) strain ATCC 33591; details: MRSA ATCC 33591
Enterococcus gallinarum = experiment: MIC microbroth dilution (CLSI); format: cell-based; details: vancomycin-resistant (VanC) clinical isolate
Description: (§1) Cation-adjusted Mueller-Hinton broth (Oxoid Ltd., Basingstoke, UK and Trek Diagnostic Systems Ltd., East Grinstead, UK) (supplemented with 5% laked horse blood for Streptococcus spp., Corynebacterium jeikeium and Listeria monocytogenes) was used for aerobic bacteria, with an initial inoculum of approximately 10^5 colony-forming units (CFU)/m L.

[4] = tested on: Staphylococcus saprophyticus; experiment: MIC microbroth dilution (CLSI); format: cell-based; details: antibiotic susceptible clinical isolate
Description: as §1

[5] = tested on: Stenotrophomonas maltophilia; experiment: MIC microbroth dilution (CLSI); format: cell-based; details: antibiotic-susceptible clinical isolate
Description: as §1

Shigella sp = experiment: MIC microbroth dilution (CLSI); format: cell-based; details: antibiotic-susceptible clinical isolate
Description: as §1

Microsporum canis = experiment: MIC microbroth dilution (CLSI); format: cell-based; details: G.R. Micro collection

With `CC(C)(C)c1cc(C(C)(C)C)c2[nH]c(C(C)(C)C)c(CC(NC(=O)C(N)CCCNC(=N)N)C(=O)NC(CCCNC(=N)N)C(=O)NCCc3ccccc3)c2c1` (stereo not drawn) [Compound 2] the MIC (Eggerthella lenta) was 32, the MIC (Bacteroides fragilis) was 64 and the “CFU (samples containing AMC-109)” value (E. coli (5067-6002)) was 0. The MIC [1] was less than 3 µM, the MIC (Candida tropicalis) was 4 and the MIC [2] was 8. The MIC (Cryptococcus neoformans) was 4, the “minimum inhibitory concentration (MIC)” value (S. epidermidis) was 2 to 4 µg/mL and the “CFU (samples containing AMC-109)” value (S. epidermidis (RP62A)) was 0. The MIC [3] was less than 3 µM, the MIC (Enterococcus gallinarum) was 4 and the MIC [4] was 1. For the same compound, the MIC [5] was 8, the MIC (Shigella sp) was 8 and the MIC (Microsporum canis) was 8.

Reference: patent US20230233736A1, “ANTIMICROBIAL FORMULATIONS COMPRISING SILICONE” (AMICOAT AS, priority 2020, published 2023)
